Laboratory results: patent US6919092B2, “Method for the management of incontinence” (ALZA Corporation, priority 1995, dated 2005)

Assay: Multiple dose crossover clinical pharmacokinetic study, IR vs CR oxybutynin
Conditions: plasma

## CCNCC#CCOC(=O)C(O)(c1ccccc1)C1CCCCC1 (stereo not shown) [DESOXY]
  t1/2 life of DESOXY compared to OXY: shorter
